Measured values: PMC6156440, “A Class 1 Histone Deacetylase as Major Regulator of Secondary Metabolite Production in Aspergillus nidulans” (Frontiers in Microbiology, 2018)

Target: T1, HosA (TAP-tagged HosA) (Aspergillus nidulans, UniProt Q5B6M4)
T1 construct: gene ANIA_03806; TAP-tagged HosA expressed in A. nidulans hosA deletion strain under xylPp; IgG-Sepharose pull-down under native conditions, eluted by TEV protease (CBP part of tag kept); enriched fraction, endogenous complex partners not examined
T1 sequence (Q5B6M4 1-482): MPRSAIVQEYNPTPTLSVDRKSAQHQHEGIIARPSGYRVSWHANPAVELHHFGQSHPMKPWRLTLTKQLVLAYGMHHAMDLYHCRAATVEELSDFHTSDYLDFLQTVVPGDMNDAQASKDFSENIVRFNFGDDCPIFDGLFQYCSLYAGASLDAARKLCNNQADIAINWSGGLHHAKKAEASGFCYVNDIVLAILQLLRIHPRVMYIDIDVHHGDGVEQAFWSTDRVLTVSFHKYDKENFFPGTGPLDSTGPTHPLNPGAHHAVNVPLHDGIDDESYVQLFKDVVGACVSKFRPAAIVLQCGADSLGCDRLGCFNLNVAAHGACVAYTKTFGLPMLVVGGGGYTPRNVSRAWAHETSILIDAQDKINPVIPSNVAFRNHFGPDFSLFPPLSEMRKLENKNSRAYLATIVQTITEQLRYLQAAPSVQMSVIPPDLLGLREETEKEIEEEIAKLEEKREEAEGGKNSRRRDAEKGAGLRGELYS
Assay: fluorometric HDAC assay, labelled acetylated peptide substrate (EMD Millipore kit)
Type: biochemical
Conditions: read-out: % inhibition at 100 nM

CC(/C=C/C(=O)NO)=C\[C@@H](C)C(=O)c1ccc(N(C)C)cc1 [TSA, trichostatin A]
inhibition at 0.1 µM: > 60%
